Entries after “also recorded” stand apart in the source; their conditions may differ.
Key:
chiens [1] = test: Influence on noradrenaline hypertension, dog; assay type: in vivo; conditions: chien
Procedure: (§1) b) Sur les mêmes chiens on a étudié l'influence du produit vis à vis de l'isoprénaline et de la noradrénaline.
L'hyptertension à la noradrénaline (2 µg/kg I.V.) est augmentée par le CRL 41 252 ([…]), la pression artérielle systolique passe de 208 à 352 mmHg (soit environ de 2,77 x 10^4 à 4,7 x 10^4Pa) au lieu de 204 à 328 mmHg (soit environ de 2,71 à 4,3 x 10 Pa).

chiens [2] = test: Influence on isoprenaline effects, dog; assay type: in vivo; conditions: chien, after dose cumulée 19,1 mg/kg I.D.
Source text: as §1
Avec 10,pg/kg I.V. d'isoprénaline la pression artérielle diastolique du CRL 41 252 passe de 128 à […] ([…] à 6,4 x 10^3 Pa), […]

chiens [3] = test: Influence on isoprenaline effects, dog; assay type: in vivo; conditions: chien, isoprénaline 10 µg/kg I.V., dose cumulée de 19,1 mg/kg I.D.
chiens [4] = test: Cardiovascular tests in dogs, intraduodenal successive doses; assay type: in vivo, chien
Procedure: a) Quatre chiens (poids moyen : 13,8 kg) anesthésiés au nembutal reçoivent le CRL 41 250 par voie intraduodénale, aux doses successives de 0,1 mg/kg, 0,5 mg/kg, 1 mg/kg, 2,5 mg/kg, 5 mg/kg puis 10 mg/kg. On mesure la pression artérielle, la fréquence cardiaque, le débit artériel fémoral, le débit artériel vertébral, la température rectale et on observe la coloration de la peau.
a) Deux chiens (poids moyen : 14,5 kg) reçoivent le CRL 41 252 par voie intraduodénale, aux doses successives de 0,1 mg/kg, 0,5 mg/kg, 1 mg/kg, 2,5 mg/kg, 5 mg/kg, 10 mg/kg et 20 mg/kg. On mesure la pression artérielle, la fréquence cardiaque, le débit artériel fémoral, le débit artériel vertébral, les températures rectale et cutanée et on observe la coloration de la peau.

[5] = system: système nerveux central (SNC); test: General statement of CNS (antidepressant, sedative) properties; assay type: in vivo
souris [6] = test: Intergroup aggressiveness, mouse; assay type: in vivo; conditions: I.P., aux doses utilisées
Procedure: Après avoir séjourné pendant 3 semaines dans chacune des moitiés d'une cage séparées par une cloison opaque, des groupes de 3 souris reçoivent le CRL 41 190. Une demi-heure plus tard, les deux groupes d'une même cage sont réunis par retrait de la cloison et on note le nombre de combats qui surviennent en 10 minutes.

souris [7] = test: Interaction with oxotremorine, mouse; assay type: in vivo; conditions: oxotrémorine 0,5 mg/kg I.P.
souris mâle = conditions: in vivo
Procedure: (§2) On a résumé ci-après les résultats des essais neuropsychopharmacologiques qui ont été entrepris avec les produits préférés selon l'invention, le CRL 41 190 (Ex 1) et le CRL 41 214 (Ex 3). Dans ce résumé, les deux produits à tester mis en solution dans de l'eau distillée ont été administrés, sauf indiction contraire, par voie intrapéritonéale sous un volume de 20 ml/kg chez la souris mâle et sous un volume de 5 ml/kg chez le rat mâle. […]
La DL-0 (dose maximale non mortelle) du CRL 41 190 est supérieure à 128 mg/kg par voie I.P. chez la souris mâle, et la DL-30 est de l'ordre de 256 mg/kg.
Par voie I.P. chez la souris mâle, la DL-0 est supérieure à 256 mg/kg.

souris [8] = test: Spontaneous motility (actimeter), mouse; assay type: in vivo; conditions: souris, I.P.; plus forte dose utilisée (128 mg/gk)
souris [9] = test: Motility reduced by habituation to the enclosure, mouse; assay type: in vivo; conditions: I.P., plus forte dose utilisée (128 mg/kg)
l'homme = test: Clinical treatment of depression, oral administration; assay type: in vivo
rat [10] = test: Interaction with apomorphine, rat; assay type: in vivo; conditions: product I.P. 0,50 h before s.c. 0,5 mg/kg apomorphine
souris [11] = test: Global behaviour and reactivities, mouse; assay type: in vivo; conditions: I.P.
Procedure: as §2
(§3) Des lots de trois animaux sont observés avant puis 0,25 h, 0,5, h, 1 h, 2 h, 3 h et 24 h après administration de CRL 41 190.

souris [12] = test: Interaction with reserpine (hypothermia, ptosis), mouse; assay type: in vivo; conditions: réserpine 2,5 mg/kg I.P.
Procedure: Quatre heures après l'injection intrapéritonéale de 2,5 mg/kg de réserpine, des lots de 12 souris reçoivent le CRL 41 190. On étudie l'influence du produit à tester sur l'hypothermie et le ptôsis réserpiniques.

souris [13] = test: Asphyxic anoxia (gallamine triethiodide), mouse; assay type: in vivo; conditions: product I.P. half an hour before triiodoéthylate de gallamine 32 mg/kg I.P.
souris [14] = conditions: I.P., plus forte dose utilisée (128 mg/kg)
rats = test: Interaction with amphetamine (stereotypies), rat; assay type: in vivo; conditions: amphétamine 2 mg/kg I.P., doses de 4 mg/kg, 16 mg/kg et surtout 64 mg/kg
Procedure: L'amphétamine (2 mg/kg) est injectée par voie intrapéritonéale à des lots de 6 rats, une demi -heure après l'administration de CRL 41 190.

souris [15] = test: Interaction with barbital (sleep duration), mouse; assay type: in vivo; conditions: barbital 220 mg/kg I.P., plus forte dose utilisée (128 mg/kg)
souris [16] = test: Interaction with apomorphine, mouse; assay type: in vivo
Procedure: • 1°) chez la souris • Des lots de 6 souris reçoivent le produit à étudier 0,50 h avant une injection sous-cutanée de 1 mg/kg ou 16 mg/kg d'apomorphine.

rat [17] = test: Global behaviour and reactivities, rat; assay type: in vivo; conditions: I.P.
Procedure: as §2, §3

souris [18] = test: Four-plate test, traction and electroshock, mouse; assay type: in vivo
Procedure: Le test est pratiqué sur des lots de 10 souris 0,50 h après l'administration du produit à étudier.

souris [19] = test: Behavioural despair (forced immersion), mouse; assay type: in vivo; conditions: I.P., doses de 32 et 128 mg/kg
Source text: On note la durée totale d'immobilité entre la 2ème et la 6ème minutes suivant l'immersion.

[20] = dès la dose de 8 mg/kg, mais surtout aux doses de 32 mg/kg et 128 mg/kg
[21] = souris, 0,50 h after I.P. administration

CC(SC(CNC(C)(C)C)c1ccccc1)C(N)=O (stereo not drawn) [CRL 41 250, fumaratede 2-{[α-(tertiobutylaminomethyl)-benzyl]-thio}-propionamide]
pression artérielle systolique, before noradrénaline (chiens [1]; after dose cumulée 19,1 mg/kg I.D., control 204): 191 mmHg
pression artérielle systolique, after noradrénaline (chiens [1]; noradrénaline 2 µg/kg I.V., after dose cumulée 19,1 mg/kg I.D., control 304): 330 mmHg
hypertension à la noradrénaline (chiens [1]; noradrénaline 2 µg/kg I.V., dose cumulée de 19,1 mg/kg I.D.): légèrement augmentée
pression artérielle diastolique, before isoprénaline (chiens [2]; control 151): 148 mmHg
fréquence cardiaque, before isoprénaline (chiens [2]; control 180): 175 battements/minute
pression artérielle diastolique, after isoprénaline (chiens [2]; isoprénaline 10 µg/kg I.V., control 43): 47 mmHg
fréquence cardiaque, after isoprénaline (chiens [2]; isoprénaline 10 µg/kg I.V., control 271): 265 battements/minute
effect on isoprénaline response (pression artérielle diastolique, fréquence cardiaque) (chiens [3]): ne modifie pas la pression artérielle diastolique ni la fréquence cardiaque
débit fémoral (chiens [4]; chien anesthésié (nembutal), dose de 19,1 mg/kg I.D.): augmente le débit fémoral
fréquence cardiaque (chiens [4]; chien anesthésié, dose de 1 mg/kg I.D.): provoque une légère bradycardie
pression artérielle (chiens [4]; chien anesthésié, successive I.D. doses 0,1 to 10 mg/kg): aucun effet sur la pression artérielle
effets vasodilatateurs (propriétés cardiovasculaires) (chiens [4]; general statement): effets vasodilatateurs intéressants; also recorded: effets vasodilatateurs bénéfiques
propriétés antidépressives et sédatives [5]: propriétés antidépressives et sédatives

CC(C)(C)NCC(SCC(=O)NO)c1ccccc1 (racemic) [CRL 41 214, chlorhydratede l'acide [α-(tertiobutyl-aminométhyl)-benzyl]-thioacétohydroxamique]
nombre de combats (souris [6]): ne modifie pratiquement pas le nombre de combats
signes de stimulation cholinergique périphérique dûs à l'oxotrémorine (souris [7]; all doses used): ne modifie pratiquement pas les signes de stimulation cholinergique périphérique dûs à l'oxotrémorine
intensité des tremblements dus à l'oxotrémorine (souris [7]; doses de 32 mg/kg et 128 mg/kg): diminue faiblement l'intensité des tremblements dus à l'oxotrémorine
hypothermie induite par l'oxotrémorine (souris [7]; [20]): s'oppose à l'hypothermie induite par l'oxotrémorine
signs observed at high doses (souris mâle): une sédation et une dyspnée
DL-0 (dose maximale non mortelle) (souris mâle; mouse, ip): > 256 mg/kg
activité motrice spontanée (souris [8]): augmente nettement l'activité motrice spontanée de la souris
reprise d'activité motrice chez la souris habituée à son enceinte (souris [9]): entraîne une reprise nette d'activité motrice chez la souris habituée à son enceinte
traitement des dépressions chez l'homme (l'homme; administration orale, gélules ou comprimés 25 mg ou 50 mg, 1 à 2 prises par jour, deux à trois semaines): bons résultats
propriétés antidépressives chez les personnes agées (l'homme; clinical, oral): se manifestaient de façon très bénéfique chez les personnes agées
stéréotypies induites par l'apomorphine (rat [10]): laisse inchangées les stéréotypies induites par l'apomorphine
comportement global et réactivités (souris [11]; dose de 128 mg/kg): une mydriase modérée
comportement global et réactivités (souris [11]; doses de 2 à 32 mg/kg): aucune modification nette du comportement et des réactivités
ptôsis réserpinique (souris [12]; doses 8 to 128 mg/kg): sans modifier le ptôsis
hypothermie réserpinique (souris [12]; [20]): antagonise l'hypothermie réserpinique
délai d'apparition des convulsions et de la mort consécutives à une anoxie asphyxique (souris [13]): diminue très modérément le délai d'apparition des convulsions et de la mort
récupération motrice après anoxie hypobare aigue (souris [14]): semble entraîner une amélioration très modérée de la récupération motrice
stéréotypies amphétaminiques (rats): potentialise nettement les stéréotypies amphétaminiques
durée du sommeil barbiturique (souris [15]): diminue nettement la durée du sommeil barbiturique
hypothermie induite par l'apomorphine (souris [16]; I.P., dès la dose de 2 mg/kg, mais surtout aux doses de 32 mg/kg à 128 mg/kg): antagonise l'hypothermie induite par l'apomorphine
comportements de verticalisation et stéréotypies (apomorphine) (souris [16]; product I.P. 0,50 h before s.c. apomorphine): ne sont pratiquement pas modifiés
comportement global et réactivités (rat [17]; dose de 16 mg/kg): une mydriase d'une durée de 2 h qui est maximale 0,5 h après administration
comportement global et réactivités (rat [17]; dose de 64 mg/kg): une diminution de la fréquence respiratoire pendant 0,5 h et une mydriase d'une durée de 3 h qui est maximale 1 h après administration
comportement global et réactivités (rat [17]; doses de 1 et 4 mg/kg): aucune modification nette du comportement, des réactivités, de la température rectale et du diamètre pupillaire par rapport au lot témoin
effets convulsivants de l'électrochoc (souris [18]; [21]): ne modifie pratiquement pas les effets convulsivants
incapacité motrice (traction) (souris [18]; [21]): ne provoque pas d'incapacité motrice majeure
nombre de passages punis (test des quatre plaques) (souris [18]; [21]): n'entraîne pas d'augmentation nette du nombre de passages punis
effets létaux de l'électrochoc (souris [18]; souris, I.P., dose de 128 mg/kg): aggrave, à la dose de 128 mg/kg, les effets létaux de l'électrochoc
durée de l'immobilité de la souris placée en immersion forcée (souris [19]): diminue très modérément la durée de l'immobilité de la souris placée en immersion forcée

Source: patent EP0158545A1, “[Alpha-(alkylaminomethyl)-benzylthio]-acetic-acid derivatives, process for their preparation and their therapeutic use” (priority 1984, dated 1985)
